Measurements reported in patent US8133471B2, “CLK-peptide and SLK-peptide” (New York University, priority 2003, dated 2012).

Columns and labels:
[1] = tested on: Glioblastoma (GL261) cells; experiment: GL261 glioblastoma cell adhesion to collagen type-IV; format: cell-based, murine
Method: FIG. 21 Effects of CLK-Peptide on Glioblastoma Cell Adhesion to Denatured Collagen Type-IV.
To assess the functional significance of the HUI77/CLK cryptic epitope, cell adhesion assays using a glioblastoma cell line were performed. Microtiter plates were coated with denatured collagen type-IV (10 μg/ml). Glioblastoma (GL261) cells were resuspended in adhesion buffer in the presence or absence of CLK-peptide or a non-specific control (CTW) peptide (50 μg/ml) and the […] were incubated in the coated wells for 30 minutes. Non-attached cells were removed by washing, and attached cells quantified by staining with crystal violet.

P27KIP1 = P27KIP1 expression by Western blot in tumor cells on denatured collagen; format: cell-based, murine; conditions: 24 hours
Method: FIG. 11 Inhibition of Cellular Interactions by CLK-Peptide Enhances Expression of P27KIP1. […] A. Treatment of B16F10 melanoma cells. B. Treatment of GL261 glioblastoma cells.
To determine whether the effect on inhibition of tumor proliferation and invasion in vivo differs in malignant tumors and normal tissue, the effect of CLK-peptide on gene expression was analyzed. Genes that regulate cell cycle control, including Cyclin Dependent Kinase (CDK) inhibitors known to regulate cellular proliferation, were studied. Tumor cells (B16F10 melanoma and GL261 glioblastoma) were resuspended in adhesion buffer in the presence or absence of CLK-peptide or control. Cells were added to culture plates coated with denatured collagen and allowed to incubate for 24 hours. Total cell lysates were prepared and the relative levels of the CDK inhibitor P27^KIP1 was examined by Western Blot analysis.

[2] = tested on: denatured collagen type-IV; experiment: 99Tc-CLK-Peptide competitive binding to denatured collagen type-IV (gamma counter); conditions: collagen 10 μg/ml; 99Tc-CLK-peptide 10 μg/ml
Method: FIG. 18 Inhibition of 99Tc-CLK-Peptide binding by unlabeled HUI77.
FIG. 19 Inhibition of Binding of Labeled CLK-Peptide to Denatured Collagen Type-IV by mAb HUI77. Denatured collagen type-IV (10 μg/ml) was coated on microtiter wells and binding of 99Tc-labeled CLK-Peptide in the presence or absence of unlabeled CLK-peptide or mAb HUI77 was measured. As shown in the figure, 99Tc-CLK-peptide (10 μg/ml, 50 μl/well) specifically binds to denatured collagen type-IV (first bar from left). […] 99Tc-CLK-peptide was also allowed to bind to denatured collagen type-IV in the presence or absence of Mab HUI77 (fourth and fifth bars from left). […] These findings provide further evidence that the CLK-peptide binds to a similar if not identical epitope recognized by Mab HUI77.
^99Tc-CLK-Peptide was used in competitive binding studies to further characterize the CLK epitope. To evaluate the ability of HUI77 to compete with binding to denatured type-IV collagen, type-IV collagen was denatured at 60° C. for 15 minutes at a concentration of […] in PBS. […] The supernatant, washes and collagen-coated wells were counted in a gamma counter (1 minute counts in duplicate).
In addition, denatured collagen type-IV (10 μg/ml) was coated on microtiter wells and binding of ^99Tc-labeled CLK-Peptide in the presence or absence of either unlabeled CLK-peptide or mAb HUI77 was measured using a gamma counter. […]

[3] = tested on: intact triple helical collagen type-IV; experiment: Solid phase ELISA, labeled CLK-peptide binding to native collagen type-IV
Method: FIG. 15 CLK-Peptide Reacts with a Cryptic Epitope in Collagen Type-IV In Vitro. Reactivity of biotin-labeled CLK-Peptide was assessed by solid phase ELISA. Reactivity was monitored by incubation with HRP-labeled streptavidin. […] All data was corrected for nonspecific binding of HRP-labeled streptavidin only. Data bars represent the mean optical density (O.D.)±standard deviation from triplicate wells. Assays were repeated 2 to 3 times with similar results.
The CLK-peptide was labeled with HRP and used in solid phase ELISA to assess differential binding to either native or denatured collagen type-IV. Microtiter plates were coated with either native or denatured collagen type-IV and HRP-labeled CLK-peptide was allowed to bind. […] In contrast, CLK-Peptide readily bound to denatured collagen type-IV. […] To determine whether this cryptic epitope was also exposed within the ECM in vivo, biotin-labeled CLK-peptide was used to stain M21 human melanoma tumors growing in nude mice (results shown in FIGS. 16A and B and described in Example 15).

[4] = tested on: denatured collagen type-IV; experiment: Competition ELISA, mAb HUIV26 or HUI77 binding to denatured collagen with or without CLK-peptide (Example 16); conditions: collagen coated at 10 μg/ml; 1:1 ratio
Method: FIG. 17 CLK-Peptide Binds to the HUI77 Cryptic Collagen Epitope. To examine the epitope bound by CLK, competition ELISAs were carried out. Microtiter wells were coated with denatured collagen type-IV (10 μg/ml), and mAb HUIV26 or HUI77 were allowed to bind the denatured collagen in the presence or absence of CLK-peptide.
ELISAs were performed to examine the binding specificity of CLK-Peptide. Denatured type-IV collagen (10 μg/ml) was coated on microtiter wells and CLK-peptide allowed to bind in the presence or absence of Mab HUI77 or Mab HUIV26 at a 1:1 ratio. HRP-labeled goat anti-mouse secondary antibodies were used to detect murine Mabs HUI77 and HUIV26, directed to distinct cryptic epitope within collagen type-IV, and the O.D. at 490 nm measured.

GL261 tumor cells = experiment: GL261 cell migration on denatured collagen type-IV (transwell); format: cell-based, murine; conditions: 50 μg/ml; 6 hours; versus controls
Method: FIG. 22 Effects of CLK-Peptide on Tumor Cell Migration. In cell migration assays, CLK-peptide (50 μg/ml) inhibited GL261 cell migration on denatured collagen type-IV by approximately 50% as compared to control.
The effects of CLK-peptide on invasive tumor cell migration and proliferation in vitro were examined. Membranes from transwell chambers and microtiter wells (in proliferation assays) were coated with denatured collagen type-IV (10 μg/ml). GL261 cells were resuspended in either migration buffer or proliferation buffer in the presence or absence of CLK-peptide or control (50 μg/ml). In the cell migration experiments, GL261 tumor cells were allowed to migrate for 6 hours. Tumor cells that had migrated to the underside of the coated membranes were quantified by staining with crystal violet, and the optical densities of cell-associated dye were measured with a microplate reader at a wavelength of 600 nm.

H-CLKQNGGNFSLG-OH [CLK-peptide, NH2-C-L-K-Q-N-G-G-N-F-S-L-G-COOH]
inhibition of glioblastoma cell adhesion to denatured collagen type-IV ([1]; 50 μg/ml, 30 minutes): 90% | effect on glioblastoma cell adhesion to native intact collagen type-IV ([1]; data not shown): no effect | P27KIP1 level (P27KIP1; B16F10 melanoma cells on denatured collagen): dramatic upregulation | P27KIP1 level (P27KIP1; GL261 glioblastoma cells on denatured collagen): dramatic upregulation | inhibition of 99Tc-CLK-peptide binding to denatured collagen type-IV [2]: dose-dependent inhibition | binding to intact triple helical collagen type-IV [3]: little if any binding | blocking of mAb HUI77 binding to denatured collagen [4]: significantly blocked | blocking of mAb HUIV26 binding to denatured collagen [4]: did not block | inhibition of GL261 cell migration on denatured collagen type-IV (GL261 tumor cells): approximately 50%
